From patent US20170368082A1, “FORMULATIONS OF BRINCIDOFOVIR” (priority 2016, published 2017) come the findings set out here.

The nature of this series: PBMC PK of CDV-PP following IV and oral suspension BCV. Particulars: PBMC CDV-PP. The series is classed as in vivo, human. The procedure: Two single dose BCV studies in healthy subjects contributed data for this analysis. The first study was a 2-period crossover bioequivalence study that enrolled 24 subjects who received two formulations of BCV oral suspension 100 mg fasted, one in each period. Data from 12 subjects who had PBMCs collected in Period 1 were included in this analysis; these subjects were 100% female, 31-59 years, and 58-88 kg. The second study, outlined above, enrolled 40 subjects who received IV BCV or placebo. Data from 18 subjects who received BCV 50 mg as either a 2-h or 4-h IV infusion were included in this analysis; these subjects were 100% male, 18-46 years, 64-106 kg. Serial PBMC samples were collected over 14 days and assayed by HPLC-MS-MS. PBMC CDV-PP PK parameters were determined by non-compartmental analysis.

[1] abbreviates: BCV 50 mg IV 2 h Infusion, n = 9.
Setting [2] is: BCV 50 mg IV 4 h Infusion, n = 9.
Where [3] appears, read: BCV 100 mg Oral suspension, n = 12.

As to cidofovir diphosphate [CDV-PP], the AUClast is listed as 1409 pg · h/10^6 cells under setting [1], 963 pg · h/10^6 cells under setting [2] and 1107 pg · h/10^6 cells under setting [3]. Moreover, the Cmax under setting [1] is given as 14.3 pg/10^6 cells, the Cmax under setting [2] is 8.41 pg/10^6 cells and the Cmax under setting [3] is reported as 7.68 pg/10^6 cells.
